Some results are limits rather than exact numbers.

Assay [1] has as its target Sigma non-opioid intracellular receptor 1 (Rattus norvegicus, UniProt Q9R0C9). Briefly: Binding affinity at sigma receptor by [3H](+)-SKF-10047 displacement.
Another assay has as its target D(1A) dopamine receptor (Rattus norvegicus, UniProt P18901). Description: Binding affinity at dopamine D1 receptor in rat striatum by [3H][…] displacement. In kind it is tissue-based.
In a further assay the target is D(2) dopamine receptor (Rattus norvegicus, UniProt P61169). Briefly: Binding affinity at dopamine D2 receptor in rat striatum by [3H]spiperone displacement. It counts as tissue-based.
D(2) dopamine receptor, sequence (P61169 whole entry): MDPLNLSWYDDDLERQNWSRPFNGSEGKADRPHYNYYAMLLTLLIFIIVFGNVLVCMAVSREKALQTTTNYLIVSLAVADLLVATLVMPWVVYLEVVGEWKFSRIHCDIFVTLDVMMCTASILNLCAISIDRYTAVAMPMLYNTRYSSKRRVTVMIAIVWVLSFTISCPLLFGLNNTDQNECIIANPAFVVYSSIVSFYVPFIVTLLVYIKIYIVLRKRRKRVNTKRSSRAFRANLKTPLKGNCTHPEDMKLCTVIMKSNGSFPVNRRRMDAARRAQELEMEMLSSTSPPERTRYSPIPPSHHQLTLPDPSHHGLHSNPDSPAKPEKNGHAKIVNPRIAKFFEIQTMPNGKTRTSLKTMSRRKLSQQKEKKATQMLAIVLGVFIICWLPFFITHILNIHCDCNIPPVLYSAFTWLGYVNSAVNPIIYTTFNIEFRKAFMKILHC

D(1A) dopamine receptor, sequence (P18901 whole entry): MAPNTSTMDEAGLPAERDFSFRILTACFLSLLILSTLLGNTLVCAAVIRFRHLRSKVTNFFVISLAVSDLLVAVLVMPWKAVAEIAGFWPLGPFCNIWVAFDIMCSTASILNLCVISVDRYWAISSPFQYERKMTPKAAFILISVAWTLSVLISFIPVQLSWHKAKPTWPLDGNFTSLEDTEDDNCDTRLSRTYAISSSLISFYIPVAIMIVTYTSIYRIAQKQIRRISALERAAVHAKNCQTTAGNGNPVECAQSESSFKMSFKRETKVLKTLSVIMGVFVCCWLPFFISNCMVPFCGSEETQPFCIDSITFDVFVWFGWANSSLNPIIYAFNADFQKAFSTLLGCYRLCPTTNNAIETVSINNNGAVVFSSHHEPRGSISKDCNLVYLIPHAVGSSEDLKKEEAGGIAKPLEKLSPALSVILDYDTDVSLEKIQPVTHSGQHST
Sigma non-opioid intracellular receptor 1, sequence (Q9R0C9 whole entry): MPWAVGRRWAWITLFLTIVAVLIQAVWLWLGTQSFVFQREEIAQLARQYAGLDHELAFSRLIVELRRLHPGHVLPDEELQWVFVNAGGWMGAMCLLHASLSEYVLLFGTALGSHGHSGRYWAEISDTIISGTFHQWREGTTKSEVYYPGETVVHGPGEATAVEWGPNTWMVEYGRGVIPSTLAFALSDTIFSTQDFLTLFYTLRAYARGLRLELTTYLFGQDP

Turning to `C(=C\C1CCCN(Cc2ccccc2)C1)/c1ccccc1` (stereo not drawn), the IC50 – broadly, the concentration needed to halve the response being measured – in assay [1] worked out at 10 nM.
Take `C(=C\C1CCCN(CCCc2ccccc2)C1)/c1ccccc1` (stereo not drawn): the results for the IC50 (in assay [1]; on D(1A) dopamine receptor; on D(2) dopamine receptor) were 4 nM, 1550 nM and 1240 nM, respectively.
For `C(=C/C1CCCN(CCC2CCCCC2)C1)/c1ccccc1` (stereo not drawn), in that order: 7 nM, > 10000 nM and 5440 nM.
For `C=CCN1CCCC(/C=C/c2ccccc2)C1` (stereo not drawn), in that order: 4 nM, > 10000 nM and > 10000 nM.
In the same order, the values of `C(=C/C1CCCNC1)/c1ccccc1` (stereo not drawn) are 64 nM, > 10000 nM and 870 nM.
As for `C(=C/C1CCCN(CCc2ccccc2)C1)/c1ccccc1` (stereo not drawn), the IC50 in assay [1] amounted to 0.8 nM; on D(1A) dopamine receptor, 630 nM; on D(2) dopamine receptor, 120 nM.
`C(=C\C1CCCNC1)/c1ccccc1` (stereo not drawn): the figures for the IC50 (in assay [1]; at D(1A) dopamine receptor; on D(2) dopamine receptor) were 423 nM, > 10000 nM and > 10000 nM, respectively.
`O=C1c2ccccc2S(=O)(=O)N1CCCCN1CCCC(/C=C/c2ccccc2)C1` (stereo not drawn): in assay [1], the IC50 was 23 nM. In other words, the double-digit nanomolar range.
Consider `C(=C\C1CCCN(C2CCCCC2)C1)/c1ccccc1` (stereo not drawn), for which the IC50 in assay [1] is 6 nM; at D(1A) dopamine receptor it was > 10000 nM; at D(2) dopamine receptor, 5120 nM.
In the same order, the values of `CC(C)=CCN1CCCC(/C=C/c2ccccc2)C1` (stereo not drawn) are 38 nM, 1330 nM and 180 nM.
For `C(=C/C1CCCN(CCCCc2ccccc2)C1)/c1ccccc1` (stereo not drawn), in that order: 7 nM, 5840 nM and 1440 nM.
For `CC(C)=CCN1CCCC(/C=C\c2ccccc2)C1` (stereo not drawn), in that order: 1 nM, 320 nM and 160 nM.
On to `C(=C/C1CCCN(C2CCCCC2)C1)/c1ccccc1` (stereo not drawn), for which the IC50 is 2 nM in assay [1], > 10000 nM at D(1A) dopamine receptor and 1120 nM at D(2) dopamine receptor.
As for `O=C(CN1CCCC(/C=C\c2ccccc2)C1)Nc1ccccc1` (stereo not drawn), in assay [1], the IC50 is 640 nM. This lies in the sub-micromolar range.
Still for that read-out and setting: then `C(=C/C1CCCN(CCCOc2ccccc2)C1)/c1ccccc1` (stereo not drawn), with 15 nM; and `C(=C\C1CCCN(CCCOc2ccccc2)C1)/c1ccccc1` (stereo not drawn), with 33 nM.
Still for that read-out and setting: then `C=CCCCN1CCCC(/C=C/c2ccccc2)C1` (stereo not drawn), with 12 nM.
On the same count and under the same terms, the same measure for `O=C(CCCN1CCCC(/C=C\c2ccccc2)C1)c1ccccc1` (stereo not drawn): 15 nM; for `O=C(NCCCCN1CCCC(/C=C\c2ccccc2)C1)C12C[C@H]3C[C@@H](C1)C[C@@H](C2)C3` (stereo partly drawn): 23 nM; for `C(=C/C1CCCN(CCCSc2nc3ccccc3s2)C1)/c1ccccc1` (stereo not drawn): 27 nM.
In the case of `C(=C\C1CCCN(CCc2ccccc2)C1)/c1ccccc1` (stereo not drawn), the IC50 in assay [1] is 6 nM; on D(1A) dopamine receptor, > 10000 nM; at D(2) dopamine receptor, 2400 nM.
For `C(=C/C1CCCN(CCCc2ccccc2)C1)/c1ccccc1` (stereo not drawn), in that order: 0.6 nM, 2200 nM and 150 nM.
